This data set has as its target chimeric protein STE2-β₂AR (Homo sapiens, UniProt P07550). To be noted: (125I)-CYP 20 pM, competitor 10⁻⁹ M to 10⁻³ M, 37°C one hour, TNE.

Regarding `CNC[C@H](O)c1ccc(O)c(O)c1` [epinephrine], the inhibition efficiency order result was “alprenolol > isoproterenol > epinephrine”.

Values taken from patent EP0590721A1, “Method for expressing receptors of the human nervous system in the yeast Schizosaccharomyces pombe” (ENICHEM S.p.A., priority 1992, dated 1994).
